Assay results published in ChEMBL document CHEMBL5236580, “Blocking Non-enzymatic Functions by PROTAC-Mediated Targeted Protein Degradation” (J Med Chem, 2022).
One block for each compound: values may come before it.

Legend:
[1] = biological target: T1, Histone-lysine N-methyltransferase EZH2 (Homo sapiens, UniProt Q15910); assay: Inhibition of EZH2 (unknown origin)
Target sequence in this assay (Q15910 whole entry): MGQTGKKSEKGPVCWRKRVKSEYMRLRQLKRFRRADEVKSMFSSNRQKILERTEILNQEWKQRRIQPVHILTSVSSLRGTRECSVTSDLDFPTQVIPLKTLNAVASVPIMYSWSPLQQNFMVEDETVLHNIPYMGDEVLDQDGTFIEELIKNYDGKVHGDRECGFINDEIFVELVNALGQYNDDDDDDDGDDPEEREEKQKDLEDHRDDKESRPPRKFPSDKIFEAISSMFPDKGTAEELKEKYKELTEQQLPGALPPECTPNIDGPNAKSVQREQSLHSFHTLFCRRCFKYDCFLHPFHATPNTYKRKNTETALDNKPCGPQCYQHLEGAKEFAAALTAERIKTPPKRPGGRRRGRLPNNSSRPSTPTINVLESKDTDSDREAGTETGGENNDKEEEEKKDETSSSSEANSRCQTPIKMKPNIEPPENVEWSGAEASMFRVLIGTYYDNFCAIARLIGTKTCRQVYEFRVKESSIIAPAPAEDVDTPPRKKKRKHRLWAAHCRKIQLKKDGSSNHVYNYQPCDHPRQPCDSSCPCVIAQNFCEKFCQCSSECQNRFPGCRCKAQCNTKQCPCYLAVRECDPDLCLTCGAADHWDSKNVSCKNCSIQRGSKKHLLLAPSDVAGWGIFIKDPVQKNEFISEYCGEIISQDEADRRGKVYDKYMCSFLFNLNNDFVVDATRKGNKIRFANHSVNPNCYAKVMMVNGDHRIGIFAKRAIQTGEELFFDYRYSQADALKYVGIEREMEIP

[2] = Growth inhibition of human Triple-negative breast cancer cells; type: functional; conditions: Triple-negative breast cancer cell
[3] = biological target: Peptidyl-prolyl cis-trans isomerase FKBP1A (Homo sapiens, UniProt P62942); assay: Induction of degradation of FKBP12 (unknown origin)
[4] = biological target: T2, Nicotinamide phosphoribosyltransferase (Homo sapiens, UniProt P43490); assay: Induction of degradation NAMPT (unknown origin)
Target sequence in this assay (P43490 whole entry): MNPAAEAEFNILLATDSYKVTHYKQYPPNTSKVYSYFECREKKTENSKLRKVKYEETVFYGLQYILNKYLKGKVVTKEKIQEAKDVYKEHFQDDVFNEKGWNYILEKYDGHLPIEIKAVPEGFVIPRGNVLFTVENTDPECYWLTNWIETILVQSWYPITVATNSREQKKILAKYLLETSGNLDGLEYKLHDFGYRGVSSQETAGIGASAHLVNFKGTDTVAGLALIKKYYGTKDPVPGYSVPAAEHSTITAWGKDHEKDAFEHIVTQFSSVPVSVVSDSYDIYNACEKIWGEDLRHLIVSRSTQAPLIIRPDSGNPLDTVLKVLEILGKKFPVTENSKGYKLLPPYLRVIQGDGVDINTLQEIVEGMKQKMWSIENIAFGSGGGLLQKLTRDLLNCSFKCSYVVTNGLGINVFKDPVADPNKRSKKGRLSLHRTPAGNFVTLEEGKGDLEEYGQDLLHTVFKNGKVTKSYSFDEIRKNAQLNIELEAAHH

[5] = biological target: T2, Nicotinamide phosphoribosyltransferase; assay: Inhibition of NAMPT (unknown origin)
Target sequence in this assay (P43490 whole entry): as above

[6] = biological target: T2, Nicotinamide phosphoribosyltransferase; assay: Induction of degradation NAMPT (unknown origin) assessed as maximum degradation relative to control
Target sequence in this assay (P43490 whole entry, looked up): as the sequence (P43490 whole entry) above

[7] = Antitumor activity against human MDSC cells xenografted in BALB/c mouse assessed as tumor growth inhibition relative to control; type: functional, Myeloid-derived suppressor cell
[8] = biological target: Protein cereblon/Protein deacetylase HDAC6 (Homo sapiens, UniProt Q96SW2+Q9UBN7); assay: PROTAC activity at CRBN/HDAC6 in human K562 cells assessed as degradation of HDAC6; type: cell-based
[9] = biological target: Protein cereblon/Protein deacetylase HDAC6 (Homo sapiens) (UniProt Q9UBN7+Q96SW2); assay: PROTAC activity at CRBN/HDAC6 in human K562 cells assessed as degradation of HDAC6 relative to control; type: cell-based
MV4-11 = assay: Induction of cell cycle arrest in human MV4-11 cells assessed as accumulation of cells at G2/M phase measured after 12 hrs; type: functional, cell-based; conditions: MV4-11, 12 h
[10] = biological target: T1, Histone-lysine N-methyltransferase EZH2; assay: Induction of degradation of EZH2 in human MV4-11 cells; type: cell-based
Target sequence in this assay (Q15910 whole entry): as the sequence (Q15910 whole entry) above

[11] = biological target: T1, Histone-lysine N-methyltransferase EZH2; assay: Induction of degradation of EZH2 in human EOL1 cells; type: cell-based
Target sequence in this assay (Q15910 whole entry): as above

[12] = biological target: T1, Histone-lysine N-methyltransferase EZH2; assay: Induction of degradation of EZH2 in human MV4-11 cells assessed as maximum degradation relative to control; type: cell-based
Target sequence in this assay (Q15910 whole entry, looked up): as the sequence (Q15910 whole entry) above

[13] = biological target: T1, Histone-lysine N-methyltransferase EZH2; assay: Induction of degradation of EZH2 in human EOL1 cells assessed as maximum degradation relative to control; type: cell-based
Target sequence in this assay (Q15910 whole entry, looked up): as the sequence (Q15910 whole entry) above

JeKo-1 = assay: Antiproliferative activity against human JeKo-1 cells harbouring p53 mutant; type: functional, cell-based
[14] = Antiproliferative activity against human MINO cells harbouring p53 mutant; type: functional, cell-based
Aurora kinase A = biological target: T3, Aurora kinase A (Homo sapiens, UniProt O14965); assay: Induction of degradation of AURORA-A in human MV4-11 cells; type: cell-based
T3 sequence (O14965 whole entry): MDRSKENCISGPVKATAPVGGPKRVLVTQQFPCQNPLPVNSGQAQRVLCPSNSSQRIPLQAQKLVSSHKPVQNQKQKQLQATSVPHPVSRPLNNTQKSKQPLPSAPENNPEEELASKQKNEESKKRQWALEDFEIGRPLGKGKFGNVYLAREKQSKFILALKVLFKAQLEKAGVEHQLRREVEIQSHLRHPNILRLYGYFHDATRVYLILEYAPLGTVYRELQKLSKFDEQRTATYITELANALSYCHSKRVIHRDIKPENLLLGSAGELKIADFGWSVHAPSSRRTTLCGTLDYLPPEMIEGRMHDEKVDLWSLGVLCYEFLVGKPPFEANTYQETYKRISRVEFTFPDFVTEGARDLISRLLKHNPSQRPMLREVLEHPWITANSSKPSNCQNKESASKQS

[15] = biological target: T4, von Hippel-Lindau disease tumor suppressor/Focal adhesion kinase 1 (Mus musculus) (UniProt P34152+P40338); assay: In vivo protac activity at VHL/FAK xenografted in CD-1 mouse liver assessed as increased in FAK degradation at 80 mg/kg, sc incubated for 18 hrs relative to control; type: functional, organism-based
[16] = biological target: T4, von Hippel-Lindau disease tumor suppressor/Focal adhesion kinase 1 (Mus musculus); assay: In vivo protac activity at VHL/FAK xenografted in CD-1 mouse liver assessed as reduct ion in FAK level at 80 mg/kg, sc measured after 96 hrs relative to control; type: functional, organism-based
Focal adhesion kinase 1 [17] = biological target: T5, Focal adhesion kinase 1 (Homo sapiens, UniProt Q05397); assay: Induction of degradation of Fak in human PC-3 cells; type: cell-based
Target sequence in this assay (Q05397 whole entry): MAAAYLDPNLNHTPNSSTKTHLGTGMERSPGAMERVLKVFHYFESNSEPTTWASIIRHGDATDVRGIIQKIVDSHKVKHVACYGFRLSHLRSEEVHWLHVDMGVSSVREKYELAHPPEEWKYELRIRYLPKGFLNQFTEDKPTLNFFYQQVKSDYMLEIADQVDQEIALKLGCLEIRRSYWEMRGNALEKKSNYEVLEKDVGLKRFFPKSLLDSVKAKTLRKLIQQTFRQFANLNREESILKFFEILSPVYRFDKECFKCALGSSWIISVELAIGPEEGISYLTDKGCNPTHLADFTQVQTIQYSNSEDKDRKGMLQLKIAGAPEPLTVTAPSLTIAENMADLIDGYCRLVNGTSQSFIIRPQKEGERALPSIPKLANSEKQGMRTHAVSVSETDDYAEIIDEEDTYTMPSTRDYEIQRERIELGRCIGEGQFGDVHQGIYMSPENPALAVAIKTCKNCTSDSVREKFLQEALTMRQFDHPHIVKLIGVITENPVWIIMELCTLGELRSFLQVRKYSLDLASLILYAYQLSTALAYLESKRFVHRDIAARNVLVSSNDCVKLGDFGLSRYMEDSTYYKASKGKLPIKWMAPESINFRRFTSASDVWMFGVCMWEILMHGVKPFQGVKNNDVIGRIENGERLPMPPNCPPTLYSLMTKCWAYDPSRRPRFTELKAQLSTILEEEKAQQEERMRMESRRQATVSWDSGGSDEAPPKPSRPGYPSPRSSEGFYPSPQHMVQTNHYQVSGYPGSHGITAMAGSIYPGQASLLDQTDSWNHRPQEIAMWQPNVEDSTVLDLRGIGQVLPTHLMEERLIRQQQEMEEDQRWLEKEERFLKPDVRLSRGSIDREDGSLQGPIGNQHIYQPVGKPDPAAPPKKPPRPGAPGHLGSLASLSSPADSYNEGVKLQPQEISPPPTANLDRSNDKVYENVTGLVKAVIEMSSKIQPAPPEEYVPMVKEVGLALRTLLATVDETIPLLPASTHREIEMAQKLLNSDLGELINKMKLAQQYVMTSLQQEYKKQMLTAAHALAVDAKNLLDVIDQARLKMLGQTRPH

Focal adhesion kinase 1 [18] = biological target: T5, Focal adhesion kinase 1; assay: Induction of degradation of Fak in human PC-3 cells assessed as maximum degradation relative to control; type: cell-based
[19] = biological target: Ubiquitin carboxyl-terminal hydrolase 7 (Homo sapiens, UniProt Q93009); assay: Induction of degradation of USP7 (unknown origin)
[20] = Antiproliferative activity against human TNBC ductal adenocarcinoma cells assessed as cell growth inhibition; type: functional; conditions: Triple-negative breast cancer cell
[21] = Antiproliferative activity against human Triple-negative breast cancer cells assessed as cell growth inhibition; type: functional
[22] = biological target: T1, Histone-lysine N-methyltransferase EZH2; assay: Induction of degradation of EZH2 degradation in human MDA-MB-453 cells; type: cell-based
Target sequence in this assay (Q15910 whole entry): as the sequence (Q15910 whole entry) above

T4 sequence (P34152 whole entry, looked up): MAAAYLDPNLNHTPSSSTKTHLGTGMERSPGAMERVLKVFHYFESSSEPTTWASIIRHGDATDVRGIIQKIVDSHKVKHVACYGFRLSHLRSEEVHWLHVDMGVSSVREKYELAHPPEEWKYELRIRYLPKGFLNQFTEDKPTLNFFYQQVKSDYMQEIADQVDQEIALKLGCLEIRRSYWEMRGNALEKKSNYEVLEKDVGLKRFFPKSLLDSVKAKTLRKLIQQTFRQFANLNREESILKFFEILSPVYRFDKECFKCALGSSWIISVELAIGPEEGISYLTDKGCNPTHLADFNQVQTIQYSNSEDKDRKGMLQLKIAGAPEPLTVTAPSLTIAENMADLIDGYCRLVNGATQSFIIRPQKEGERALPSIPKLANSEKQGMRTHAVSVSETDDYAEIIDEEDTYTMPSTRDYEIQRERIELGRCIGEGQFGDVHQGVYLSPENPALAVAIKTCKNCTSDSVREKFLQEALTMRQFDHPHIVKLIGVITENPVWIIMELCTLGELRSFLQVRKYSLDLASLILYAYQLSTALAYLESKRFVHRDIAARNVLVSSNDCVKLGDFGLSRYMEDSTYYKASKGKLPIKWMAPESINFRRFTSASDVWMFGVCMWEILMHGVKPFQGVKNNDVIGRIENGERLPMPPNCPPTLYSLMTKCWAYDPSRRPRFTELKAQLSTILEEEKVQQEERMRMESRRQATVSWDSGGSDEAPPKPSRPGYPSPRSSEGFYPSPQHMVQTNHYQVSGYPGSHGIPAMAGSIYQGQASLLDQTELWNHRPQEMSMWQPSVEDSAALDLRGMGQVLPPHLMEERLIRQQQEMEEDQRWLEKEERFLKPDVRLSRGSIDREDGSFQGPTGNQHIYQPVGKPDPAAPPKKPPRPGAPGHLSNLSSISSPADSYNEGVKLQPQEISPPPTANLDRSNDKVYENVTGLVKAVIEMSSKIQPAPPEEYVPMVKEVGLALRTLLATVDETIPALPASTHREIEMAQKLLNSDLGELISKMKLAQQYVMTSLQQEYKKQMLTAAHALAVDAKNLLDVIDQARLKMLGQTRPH
T4 sequence (P40338 whole entry, looked up): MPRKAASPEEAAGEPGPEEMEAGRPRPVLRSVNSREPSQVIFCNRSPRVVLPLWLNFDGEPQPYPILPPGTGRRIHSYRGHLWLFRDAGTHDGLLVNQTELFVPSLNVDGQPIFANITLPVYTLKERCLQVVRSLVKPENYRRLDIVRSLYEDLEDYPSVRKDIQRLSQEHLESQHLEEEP
Sequence of Ubiquitin carboxyl-terminal hydrolase 7 (Q93009 whole entry): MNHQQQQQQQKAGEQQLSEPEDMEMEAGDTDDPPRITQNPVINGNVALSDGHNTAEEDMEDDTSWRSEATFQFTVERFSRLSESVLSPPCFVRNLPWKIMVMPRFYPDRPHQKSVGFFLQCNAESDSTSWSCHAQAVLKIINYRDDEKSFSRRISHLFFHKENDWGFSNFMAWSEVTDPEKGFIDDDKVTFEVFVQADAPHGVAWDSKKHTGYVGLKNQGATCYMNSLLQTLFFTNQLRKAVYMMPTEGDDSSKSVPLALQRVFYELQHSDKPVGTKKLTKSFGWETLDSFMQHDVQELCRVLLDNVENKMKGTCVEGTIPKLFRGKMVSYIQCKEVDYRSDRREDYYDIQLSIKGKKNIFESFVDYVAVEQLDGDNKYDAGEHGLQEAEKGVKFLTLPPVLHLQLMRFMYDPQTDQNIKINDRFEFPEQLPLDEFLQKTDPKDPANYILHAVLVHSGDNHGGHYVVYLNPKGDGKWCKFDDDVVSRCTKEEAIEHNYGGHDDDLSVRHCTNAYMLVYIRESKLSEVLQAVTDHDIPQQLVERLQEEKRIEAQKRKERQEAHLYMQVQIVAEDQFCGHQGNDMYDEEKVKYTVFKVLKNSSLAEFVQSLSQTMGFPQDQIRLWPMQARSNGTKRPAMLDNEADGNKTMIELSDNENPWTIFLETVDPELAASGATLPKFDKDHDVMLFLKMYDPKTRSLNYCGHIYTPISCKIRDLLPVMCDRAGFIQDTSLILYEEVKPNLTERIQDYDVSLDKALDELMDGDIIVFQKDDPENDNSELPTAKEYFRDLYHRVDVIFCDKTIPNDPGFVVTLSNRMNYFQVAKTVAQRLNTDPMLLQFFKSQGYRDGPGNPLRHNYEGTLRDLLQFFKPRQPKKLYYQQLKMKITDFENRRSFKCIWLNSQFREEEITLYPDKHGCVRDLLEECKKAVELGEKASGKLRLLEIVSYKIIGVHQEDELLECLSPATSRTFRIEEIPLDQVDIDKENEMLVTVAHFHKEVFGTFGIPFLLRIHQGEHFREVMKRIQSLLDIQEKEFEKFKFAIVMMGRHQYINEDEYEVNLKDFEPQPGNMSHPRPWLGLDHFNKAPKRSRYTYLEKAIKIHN
Sequence of Peptidyl-prolyl cis-trans isomerase FKBP1A (P62942 whole entry): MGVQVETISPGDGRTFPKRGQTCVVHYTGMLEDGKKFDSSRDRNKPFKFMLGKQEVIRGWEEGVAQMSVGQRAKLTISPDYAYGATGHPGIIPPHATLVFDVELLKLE

IC50 [1]: 13 nM
SMILES: CCN(c1cc(-c2ccc(CN3CCN(C(=O)CCCCCCCC(=O)N[C@H](C(=O)N4C[C@H](OCc5ccccc5)C[C@H]4C(=O)NCc4ccc(-c5scnc5C)cc4)C(C)(C)C)CC3)cc2)cc(C(=O)NCc2c(C)cc(C)[nH]c2=O)c1C)C1CCOCC1
GI50 [2]: > 10000 nM

EC50 [3]: 0.27 nM
SMILES: COC1C[C@H](C[C@@H](C)[C@@H]2CC(=O)C(C)/C=C(\C)[C@@H](O)[C@@H](OC)C(=O)[C@H](C)C[C@H](C)/C=C/C=C/C=C(\C)[C@@H](OC)C[C@@H]3CC[C@@H](C)[C@](O)(O3)C(=O)C(=O)N3CCCC[C@H]3C(=O)O2)CCC1OCCOCc1cn(CCOCCOCCNc2cccc3c2C(=O)N(C2CCC(=O)NC2=O)C3=O)nn1 (some centres undefined)

EC50 [4]: 7.1 nM
IC50 [5]: 9.5 nM
Emax [6]: 90%
SMILES: Cc1ncsc1-c1ccc(C(C)NC(=O)C2CC(O)CN2C(=O)C(NC(=O)COCCOCCOCCOCCNC(=O)c2ccc(CN3CCN(S(=O)(=O)c4ccc(NC(=S)NCc5ccccc5)cc4)CC3)cc2)C(C)(C)C)cc1 (centres undefined)
TGI [7]: 80%

EC50 [8]: 109 nM
Emax [9]: 88%
SMILES: O=C(CCCO/N=C1/C(=C2/C(=O)N(Cc3cn(CCOCCNc4cccc5c4C(=O)C(N4CCC(=O)NC4=O)C5=O)nn3)c3ccccc32)Nc2ccccc21)NO (centres undefined)

IC50 (MV4-11): 1.2 nM
SMILES: COc1cc(Nc2ncc3c(n2)-c2ccc(Cl)cc2C(c2c(F)cccc2OC)=NC3)ccc1C(=O)O [ALISERTIB]

EC50 [10]: 1500 nM
IC50 [1]: 7 nM
EC50 [11]: 200 nM
Emax [12]: 68%
Emax [13]: 82%
SMILES: Cc1cc(C)c(CNC(=O)c2cc(-c3ccc(N4CCN(CCNC(=O)CCOCCNc5cccc6c5C(=O)N(C5CCC(=O)NC5=O)C6=O)CC4)nc3)cc3c2cnn3C(C)C)c(=O)[nH]1 (centres undefined)

SMILES: C[C@H](CC(=O)N1CCC(O)(Cn2cnc3c(-c4ccc(CN)cc4)n(C)nc3c2=O)CC1)c1ccccc1
IC50 (JeKo-1): > 20000 nM
IC50 [14]: > 20000 nM

EC50 (Aurora kinase A): 28 nM
SMILES: COc1cc(Nc2ncc3c(n2)-c2ccc(Cl)cc2C(c2c(F)cccc2OC)=NC3)ccc1C(=O)NCCOCCOCCNC(=O)COc1cccc2c1C(=O)N(C1CCC(=O)NC1=O)C2=O (centres undefined)

Emax [15]: 85%
Emax [16]: 60%
SMILES: CNC(=O)c1ccccc1Nc1cc(Nc2ccc(N3CCN(CC(=O)N[C@H](C(=O)N4C[C@H](O)C[C@H]4C(=O)N[C@@H](C)c4ccc(-c5scnc5C)cc4)C(C)(C)C)CC3)cc2OC)ncc1C(F)(F)F

EC50 (Focal adhesion kinase 1 [17]): 3 nM
Emax (Focal adhesion kinase 1 [18]): 99%
SMILES: Cc1ncsc1-c1ccc(CNC(=O)[C@@H]2C[C@@H](O)CN2C(=O)[C@@H](NC(=O)CCOCCOc2ccc(Nc3ncc(C(F)(F)F)c(NCc4cccc(N(C)S(C)(=O)=O)c4)n3)cc2)C(C)(C)C)cc1

SMILES: O=S(=O)(c1ccc(NC(=S)NCc2cccnc2)cc1)N1CCN(Cc2ccccc2)CC1
TGI [7]: 40%

EC50 [19]: 33 nM
SMILES: C[C@H](CC(=O)N1CCC(O)(Cn2cnc3c(-c4ccc(CNCCCCCCCCCCCNc5cccc6c5C(=O)N(C5CCC(=O)NC5=O)C6=O)cc4)n(C)nc3c2=O)CC1)c1ccccc1 (some centres undefined)
IC50 (JeKo-1): 1030 nM
IC50 [14]: 1180 nM

EC50 [22]: 140 nM
SMILES: CCN(c1cc(-c2ccc(CN3CCN(C(=O)CCCCCCCC(=O)N[C@H](C(=O)N4C[C@H](O)C[C@H]4C(=O)NCc4ccc(-c5scnc5C)cc4)C(C)(C)C)CC3)cc2)cc(C(=O)NCc2c(C)cc(C)[nH]c2=O)c1C)C1CCOCC1
GI50 [20]: 1400 nM
GI50 [21]: 1700 nM
